Reference: patent US10106554B2, “7-(morpholinyl)-2-(N-piperazinyl) methyl thieno [2, 3-C] pyridine derivatives as anticancer drugs” (NATCO PHARMA LIMITED, priority 2014, dated 2018)

Tests used:
[1] = system: MIAPaca-2 induced tumor; assay: Antagonism of MIAPaca-2 induced tumor in nude mice; assay type: in vivo; settings: for mean tumor area: p.o daily for 30 days, control 33.13 mm^2
Description: This study was carried out with 20 Male Nude Mice. Weighing of Nude Mice were taken initially before inoculation of cell line and made into four groups.
Group-I: Positive control (5 Male)
Group-II: COMPOUND 2 (5 Male) (200 mg/kg, p.o)
Group-III: COMPOUND 1 (5 Male) (50 mg/kg, p.o)
Group-IV: Standard (5 Male) (Erlotinib hydrochloride—50 mg/kg, p.o & Gemcitabine hydrochloride—120 mg/kg, i.p.)
The cell line was inoculated to Nude Mice subcutaneously to the right hind limb flank at a strength of 1×10^7 cells/0.2 ml. […] The tumor volume was measured using the formula ½1×w^2 (l=length of tumor & w=width of tumor). When the mean tumor volume was recorded above 400 mm^3, the treatment with the above drugs were started. The above drugs were administered orally daily for 30 days, except Gemcitabine hydrochloride was administered on 1st and 3rd day of each week. Weight of Nude Mice was taken daily before dosing and tumor measurement was done on alternative days using digital Vernier caliper. Surviving animals were sacrificed after the dosing is complete for 30 days and organs (tumor with skin and pancreas) were collected.
Mice dead during experimental schedule, the tumor with skin and pancreas were collected and tumor with skin was stored in 10% buffered formalin and pancreas were stored in Bouin's solution. All the organs after collection were sent for histopathology.

[2] = MTD (Maximum Tolerated Dose) study in mice, OECD procedure; settings: both sexes, mouse, in vivo, oral; p.o, single dose, 14 days observation, Swiss Albino mice
Description: The method was carried out as per OECD procedure. The study was carried out using 5 (2 Male+3 Female) Swiss Albino Mice weighing between 18-30 gms. All the animals were fasted for 3 hrs prior to the oral administration of the drug. After preparing the sample administer immediately to their body all the animals according weight. […] At the end of 14 days all the surviving animals were autopsied and stomach were cut opened and observed for absorption of the drug through the GIT. The result is given in FIG. 1. • COMPOUND 2: MTD>2000 mg.kg, p.o (Single dose 14 days observation) • COMPOUND 1: MTD=500 mg/kg, p.o (Single dose 14 days observation) b. Antagonism of MIAPaca—2 Induced Tumor in Nude Mice: […]

[3] = system: NCI-H292 induced tumor (Erlotinib resistant lung cancer); assay: Antagonism of NCI-H292 induced tumor in nude mice (histopathology); assay type: in vivo; settings: 50 mg/kg for 15 days; histopathology (4/5); positive control tumor present in all 5 animals
Description: The study was carried out with 15 Nude Mice (8 Male+7 Female).Weighing of Nude Mice were taken initially before inoculation of cell line and made into groups. Grouping as follows:
Group I: Positive control (4 Male+1 Female)
The cell line was inoculated to Nude Mice subcutaneously to the right hind limb flank at a strength of 6.25×10^5 cells/0.2 ml. […] The tumor volume was measured using the formula […] (l=length of tumor & w=width of tumor).When the mean tumor volume was recorded above 400 mm^3, the treatment with the above drugs will be started. […] Weight of Nude Mice Was taken daily before dosing and tumor measurement was done on alternative days using digital Vernier caliper. […] Mice dead during experimental schedule, the tumor with skin and liver were collected and stored in 10% buffered formalin .All the organs after collection were sent for histopathology.

[4] = 200 mg/kg, p.o, 5 mice, control 40%

Row | SMILES | mean tumor area ([1]; 200 mg/kg) | tumors localized, no tumor invasion seen [1, 4] | tumors showing vascular invasion [1, 4] | MTD at 14 days [2] | clearance of tumor, animals [3] | mean tumor area ([1]; 50 mg/kg) | remaining tumors showing no much activity (no invasion) ([1]; 50 mg/kg, p.o, 5 mice) | tumors showing invasion into underlying muscle ([1]; 50 mg/kg, p.o, 5 mice)
1 | CS(=O)(=O)N1CCN(Cc2cc3cc(-c4cnc(N)nc4)nc(N4CCOCC4)c3s2)CC1 [COMPOUND 2, 5-[2-[(4-methylsulfonylpiperazin-1-yl)methyl]-7-morpholino-thieno[2,3-c]pyridin-5-yl]pyrimidin-2-amine] | 10.90 mm^2 | 60% | 40% | > 2000 mg/kg | – | – | – | –
2 | Cc1c(CN2CCN(S(C)(=O)=O)CC2)sc2c(N3CCOCC3)nc(-c3cnc(N)nc3)cc12 [COMPOUND 1, 5-[3-methyl-2-[(4-methylsulfonylpiperazin-1-yl)methyl]-7-morpholino-thieno[2,3-c]pyridin-5-yl]pyrimidin-2-amine] | – | – | – | 500 mg/kg | 80% | 8.60 mm^2 | 80% | 20%
